According to article PMC7926793, “Synthesis and Biological Evaluation of 1-(Diarylmethyl)-1H-1,2,4-triazoles and 1-(Diarylmethyl)-1H-imidazoles as a Novel Class of Anti-Mitotic Agent for Activity in Breast Cancer” (Pharmaceuticals, 2021):
Values joined by “and” are separate entries in the source; they are usually repeats but may differ in a detail not shown here. Identical values can stand only once.

Assays:
[1] = tested on: NCI 60 cell line panel; assay: NCI 60 cell line screen, panel means; type: cell-based, human; settings: for Mean Growth percentage: 60 cell line panel, single dose 10 µM; for mean growth: 10 μM
[2] = tested on: CCRF-CEM; assay: NCI 60 cell line screen (Leukemia); type: cell-based, human; settings: single dose 10 µM
[3] = tested on: HL-60 (TB); assay: NCI 60 cell line screen (Leukemia); type: cell-based, human; settings: single dose 10 µM
[4] = tested on: K-562; assay: NCI 60 cell line screen (Leukemia); type: cell-based, human; settings: K-562, single dose 10 µM
[5] = tested on: MOLT-4; assay: NCI 60 cell line screen (Leukemia); type: cell-based, human; settings: MOLT-4, single dose 10 µM
[6] = tested on: RPMI-8226; assay: NCI 60 cell line screen (Leukemia); type: cell-based, human; settings: RPMI-8226, single dose 10 µM
[7] = tested on: HOP-92; assay: NCI 60 cell line screen (Non-Small Cell Lung Cancer); type: cell-based, human; settings: HOP-92, single dose 10 µM
[8] = tested on: NCI-H332M; assay: as above; type: cell-based, human; settings: single dose 10 µM
[9] = tested on: NCI-H460; assay: as above; type: cell-based, human; settings: NCI-H460, single dose 10 µM
[10] = tested on: NCI-H552; assay: as above; type: cell-based, human; settings: NCI-H552, single dose 10 µM
[11] = tested on: HCT-15; assay: NCI 60 cell line screen (Colon Cancer); type: cell-based, human; settings: HCT-15, single dose 10 µM
[12] = tested on: KM12; assay: NCI 60 cell line screen (Colon Cancer); type: cell-based, human; settings: KM12, single dose 10 µM
[13] = tested on: SW-620; assay: NCI 60 cell line screen (Colon Cancer); type: cell-based, human; settings: SW-620, single dose 10 µM
[14] = tested on: SF295; assay: NCI 60 cell line screen (CNS Cancer); type: cell-based, human; settings: SF295, single dose 10 µM
[15] = tested on: SF539; assay: NCI 60 cell line screen (CNS Cancer); type: cell-based, human; settings: SF539, single dose 10 µM
[16] = tested on: U251 (AC in Table 3); assay: NCI 60 cell line screen (CNS Cancer); type: cell-based, human; settings: U251, single dose 10 µM
[17] = tested on: MALME-3M; assay: NCI 60 cell line screen (Melanoma); type: cell-based, human; settings: single dose 10 µM
[18] = tested on: SK-MEL-5; assay: NCI 60 cell line screen (Melanoma); type: cell-based, human; settings: SK-MEL-5, single dose 10 µM
[19] = tested on: OVCAR-3; assay: NCI 60 cell line screen (Ovarian Cancer); type: cell-based, human; settings: OVCAR-3, single dose 10 µM
[20] = tested on: OVCAR-5; assay: NCI 60 cell line screen (Ovarian Cancer); type: cell-based, human; settings: OVCAR-5, single dose 10 µM
[21] = tested on: OVCAR-8; assay: NCI 60 cell line screen (Ovarian Cancer); type: cell-based, human; settings: OVCAR-8, single dose 10 µM
[22] = tested on: NCI/ADR-RES; assay: NCI 60 cell line screen (Ovarian Cancer); type: cell-based, human; settings: single dose 10 µM
[23] = tested on: SK-OV-3; assay: NCI 60 cell line screen (Ovarian Cancer); type: cell-based, human; settings: SK-OV-3, single dose 10 µM
[24] = tested on: 786-0; assay: NCI 60 cell line screen (Renal Cancer); type: cell-based, human; settings: 786-0, single dose 10 µM
[25] = tested on: A498; assay: NCI 60 cell line screen (Renal Cancer); type: cell-based, human; settings: A498, single dose 10 µM
[26] = tested on: ACHN; assay: NCI 60 cell line screen (Renal Cancer); type: cell-based, human; settings: single dose 10 µM
[27] = tested on: CAKI-1; assay: NCI 60 cell line screen (Renal Cancer); type: cell-based, human; settings: CAKI-1, single dose 10 µM
[28] = tested on: RXF 393; assay: NCI 60 cell line screen (Renal Cancer); type: cell-based, human; settings: RXF 393, single dose 10 µM
[29] = tested on: SN12C; assay: NCI 60 cell line screen (Renal Cancer); type: cell-based, human; settings: single dose 10 µM
[30] = tested on: TK-10; assay: NCI 60 cell line screen (Renal Cancer); type: cell-based, human; settings: TK-10, single dose 10 µM
[31] = toxicity evaluation, alamarBlue assay; type: cell-based, human; settings: human, MCF-10A cells, 72 h, read-out: percentage of viable cells
[32] = biological target: T1, CYP19 (aromatase) (Homo sapiens, UniProt P11511); assay: cytochrome P450 assay (DBF fluorescence)
T1 sequence (P11511 1-503): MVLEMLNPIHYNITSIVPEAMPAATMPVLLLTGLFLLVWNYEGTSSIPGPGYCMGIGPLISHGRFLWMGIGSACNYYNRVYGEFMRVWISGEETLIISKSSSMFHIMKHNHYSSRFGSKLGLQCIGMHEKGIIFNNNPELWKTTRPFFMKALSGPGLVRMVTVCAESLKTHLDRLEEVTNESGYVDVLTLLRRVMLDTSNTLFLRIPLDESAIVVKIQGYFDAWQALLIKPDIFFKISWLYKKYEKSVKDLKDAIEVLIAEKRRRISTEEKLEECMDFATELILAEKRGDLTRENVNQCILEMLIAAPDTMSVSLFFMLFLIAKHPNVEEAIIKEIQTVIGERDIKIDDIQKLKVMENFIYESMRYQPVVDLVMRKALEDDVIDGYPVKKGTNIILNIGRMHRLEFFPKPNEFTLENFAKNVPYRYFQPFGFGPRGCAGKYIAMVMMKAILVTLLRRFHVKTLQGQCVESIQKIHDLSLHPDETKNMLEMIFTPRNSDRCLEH

Compound | Mean Growth percentage [1] | Growth percentage [2] [%] | Growth percentage [3] [%] | Growth percentage [4] [%] | Growth percentage [5] [%] | Growth percentage [6] [%] | Growth percentage [7] [%] | Growth percentage [8] [%] | Growth percentage [9] [%] | Growth percentage [10] [%] | Growth percentage [11] [%] | Growth percentage [12] [%] | Growth percentage [13] [%] | Growth percentage [14] [%] | Growth percentage [15] [%] | Growth percentage [16] [%] | Growth percentage [17] [%] | Growth percentage [18] [%] | Growth percentage [19] [%] | Growth percentage [20] [%] | also measured
COc1ccc(C(c2cc(OC)c(OC)c(OC)c2)N2CCN(Cc3ccccc3)CC2)cc1 (stereo not shown) [27d] | 65.45% and 65.5% | 68.76 | 22.98 | 26.38 | 53.48 | 84.15 | 70.59 | 65.07 | 74.38 | 52.38 | 47.63 | 40.62 | 43.57 | 68.71 | 81.24 | 62.75 | 74.83 | 52.63 | 68.96 | 84.69 | Growth percentage [21]: 92.58%; Growth percentage [22]: 61.59%; Growth percentage [23]: 66.24%; Growth percentage [24]: 82.57%; Growth percentage [25]: 51.90%; Growth percentage [26]: 92.77%; Growth percentage [27]: 66.73%; Growth percentage [28]: 72.30%; Growth percentage [29]: 88.36%; Growth percentage [30]: 84.76%
COc1ccc(C(c2cc(OC)c(OC)c(OC)c2)N2CCCC2)cc1 (stereo not shown) [25g] | 73.14% and 73.1% | 71.21 | 35.51 | 25.23 | 78.09 | 97.42 | 85.48 | 87.51 | 84.31 | 58.47 | 52.67 | 43.91 | 47.76 | 69.71 | 95.69 | 77.78 | 85.32 | 65.20 | 66.63 | 92.64 | Growth percentage [21]: 95.58%; Growth percentage [22]: 69.39%; Growth percentage [23]: 77.46%; Growth percentage [24]: 93.40%; Growth percentage [25]: 31.23%; Growth percentage [26]: 103.18%; Growth percentage [27]: 77.46%; Growth percentage [28]: 103.13%; Growth percentage [29]: 108.47%; Growth percentage [30]: 88.29%
COc1ccc(C(c2cc(OC)c(OC)c(OC)c2)N2CCCCC2)cc1 (stereo not shown) [26b, 1-((4-Methoxyphenyl)(3,4,5-Trimethoxyphenyl)Methyl)Piperidine] | 34.17% and 34.2% | 29.91 | 4.36 | 18.04 | 31.54 | 41.20 | 44.15 | 47.90 | 19.38 | 19.85 | 20.63 | 30.23 | 14.47 | 18.75 | 27.71 | 26.12 | 55.25 | 29.49 | 8.29 | 69.57 | mean growth ([1]; breast cancer panel): 30.3%; mean growth ([1]; leukaemia panel): 23.5%; Growth percentage [21]: 50.11%; Growth percentage [22]: 23.95%; Growth percentage [23]: 16.68%; Growth percentage [24]: 38.84%; Growth percentage [25]: 7.32%; Growth percentage [26]: 50.89%; Growth percentage [27]: 29.22%; Growth percentage [28]: 25.99%; Growth percentage [29]: 54.32%; Growth percentage [30]: 57.56%
COc1ccc(C(c2cc(OC)c(OC)c(OC)c2)n2nccn2)cc1O (stereo not shown) [compound 24] | – | – | – | – | – | – | – | – | – | – | – | – | – | – | – | – | – | – | – | – | viability at 72 h, 0.1 µM ([31]; 0.1 μM): 96%; viability at 72 h, 1 µM ([31]; 1 μM): 71%; viability at 72 h, 10 µM ([31]; 10 μM): 61%; IC50 ([32]; IC50 CYP19): > 53.8 µM; inhibition at 20 µg/mL ([32]; read-out: % Inhibition at 20 µg/mL CYP19): 0.01%
